The source of these data is patent publication US9987332B2, “Pharmaceutical composition for use in the treatment of a neurodegenerative disease” (SANOFI-AVENTIS DEUTSCHLAND GMBH, priority 2011, dated 2018).

The conditions of series [1]: Kastin et al 2001; McClean et al 2011; cited from earlier work.
Series [2] can be described thus: Uptake by the brain: levels in mouse brain tissue after i.p. injection. To be noted: 2.5 nmol/kg bw ip. The format is in vivo. As to the method: Values are the mean±S.E.M. *p<0.05, **p<0.01.
Values are the mean±S.E.M. *p<0.05.
3 doses (2.5 nmol/kg bw, 25 nmol/kg bw and 250 nmol/kg bw, ip.) were tested, and the levels found in mouse brain tissue 30 min and 3 h post injection were examined.

Turning to `CCCCCCCCCCCCCCCC(=O)N[C@@H](CCC(=O)NCCCC[C@H](NC(=O)[C@H](C)NC(=O)[C@H](C)NC(=O)[C@H](CCC(N)=O)NC(=O)CNC(=O)[C@H](CCC(=O)O)NC(=O)[C@H](CC(C)C)NC(=O)[C@H](Cc1ccc(O)cc1)NC(=O)[C@H](CO)NC(=O)[C@H](CO)NC(=O)[C@@H](NC(=O)[C@H](CC(=O)O)NC(=O)[C@H](CO)NC(=O)[C@@H](NC(=O)[C@H](Cc1ccccc1)NC(=O)[C@@H](NC(=O)CNC(=O)[C@H](CCC(=O)O)NC(=O)[C@H](C)NC(=O)[C@@H](N)Cc1cnc[nH]1)[C@@H](C)O)[C@@H](C)O)C(C)C)C(=O)N[C@@H](CCC(=O)O)C(=O)N[C@@H](Cc1ccccc1)C(=O)N[C@H](C(=O)N[C@@H](C)C(=O)N[C@@H](Cc1c[nH]c2ccccc12)C(=O)N[C@@H](CC(C)C)C(=O)N[C@H](C(=O)N[C@@H](CCCNC(=N)N)C(=O)NCC(=O)N[C@@H](CCCNC(=N)N)C(=O)NCC(=O)O)C(C)C)[C@@H](C)CC)C(=O)O` [liraglutide, Arg^34,Lys^26(N^ε(γ-glutamyl(N^α-hexadecanoyl)))GLP-1(7-37)], in series [1], the “Crossing of the blood brain barrier (BBB)” value is given as “have been shown to cross the blood brain barrier”. Further, the “Levels in the brain at the lowest dose” value in series [2] is “did not show an increase”.

As to “GLP-1: 30-amino acid peptide hormone encoded in the proglucagon gene”, the “Crossing of the blood brain barrier (BBB)” value in series [1] was “have been shown to cross the blood brain barrier”.
